Laboratory results taken from ChEMBL document CHEMBL1649265, “Antimicrobial susceptibilities of Mycoplasma genitalium strains examined by broth dilution and quantitative PCR” (2009).
Converted amounts (≈) assume the structure as drawn.

Legend:
Assay type in all cases: functional
Details in all cases: Mycoplasmoides genitalium
Mycoplasma genitalium [1] = experiment: Antibacterial activity against Mycoplasma genitalium M6257 by broth dilution method
Mycoplasma genitalium [2] = experiment: Antibacterial activity against Mycoplasma genitalium by broth dilution method
Mycoplasma genitalium [3] = experiment: Antibacterial activity against Mycoplasma genitalium M6090 by broth dilution method
Mycoplasma genitalium [4] = experiment: Antibacterial activity against Mycoplasma genitalium M30 by broth dilution method
Mycoplasma genitalium [5] = experiment: Antibacterial activity against Mycoplasma genitalium M6328 by broth dilution method
Mycoplasma genitalium [6] = experiment: Antibacterial activity against Mycoplasma genitalium TW10-5G by broth dilution method
Mycoplasma genitalium [7] = experiment: Antibacterial activity against Mycoplasma genitalium M6284 by broth dilution method
Mycoplasma genitalium [8] = experiment: Antibacterial activity against Mycoplasma genitalium M6285 by broth dilution method
Mycoplasma genitalium [9] = experiment: Antibacterial activity against Mycoplasma genitalium M6283 by broth dilution method
Mycoplasma genitalium [10] = experiment: Antibacterial activity against Mycoplasma genitalium M2321 by broth dilution method
Mycoplasma genitalium [11] = experiment: Antibacterial activity against Mycoplasma genitalium M6287 by broth dilution method
Mycoplasma genitalium [12] = experiment: Antibacterial activity against Mycoplasma genitalium UTMB-10G by broth dilution method
Mycoplasma genitalium [13] = experiment: Antibacterial activity against Mycoplasma genitalium by quantitative TaqMan PCR method
Mycoplasma genitalium [14] = experiment: Antibacterial activity against Mycoplasma genitalium R32 by broth dilution method
Mycoplasma genitalium [15] = experiment: Antibacterial activity against Mycoplasma genitalium M6286 by broth dilution method
Mycoplasma genitalium [16] = experiment: Antibacterial activity against Mycoplasma genitalium TW10-6G by broth dilution method
Mycoplasma genitalium [17] = experiment: Antibacterial activity against Mycoplasma genitalium M6280 by broth dilution method
Mycoplasma genitalium [18] = experiment: Antibacterial activity against Mycoplasma genitalium M2282 by broth dilution method
Mycoplasma genitalium [19] = experiment: Antibacterial activity against Mycoplasma genitalium M6282 by broth dilution method
Mycoplasma genitalium [20] = experiment: Antibacterial activity against Mycoplasma genitalium G37 by broth dilution method
Mycoplasma genitalium [21] = experiment: Antibacterial activity against Mycoplasma genitalium TW48-5G by broth dilution method
Mycoplasma genitalium [22] = experiment: Antibacterial activity against Mycoplasma genitalium M6151 by broth dilution method
Mycoplasma genitalium [23] = experiment: Antibacterial activity against Mycoplasma genitalium M2300 by broth dilution method
Mycoplasma genitalium [24] = experiment: Antibacterial activity against Mycoplasma genitalium M2341 by broth dilution method

Structure (SMILES) | MIC (Mycoplasma genitalium [1]) | MIC50 (Mycoplasma genitalium [2]; read-out: MIC50) | MIC90 (Mycoplasma genitalium [2]; read-out: MIC90) | MIC (Mycoplasma genitalium [3]) | MIC (Mycoplasma genitalium [4]; read-out: MIC) | MIC (Mycoplasma genitalium [5]) | MIC (Mycoplasma genitalium [6]; read-out: MIC) | MIC (Mycoplasma genitalium [7]) | MIC (Mycoplasma genitalium [8]) | MIC (Mycoplasma genitalium [9]) | MIC (Mycoplasma genitalium [10]) | MIC (Mycoplasma genitalium [11]) | MIC (Mycoplasma genitalium [12]; read-out: MIC) | MIC50 (Mycoplasma genitalium [13]) | MIC90 (Mycoplasma genitalium [13]) | MIC (Mycoplasma genitalium [14]; read-out: MIC) | MIC (Mycoplasma genitalium [15]) | MIC (Mycoplasma genitalium [16]; read-out: MIC) | MIC (Mycoplasma genitalium [17]) | MIC (Mycoplasma genitalium [18]) | also measured
CC[C@H]1OC(=O)[C@H](C)[C@@H](O[C@H]2C[C@@](C)(OC)[C@@H](O)[C@H](C)O2)[C@H](C)[C@@H](O[C@@H]2O[C@H](C)C[C@H](N(C)C)[C@H]2O)[C@](C)(OC)C[C@@H](C)C(=O)[C@H](C)[C@@H](O)[C@]1(C)O [CLARITHROMYCIN] | – | – | – | – | – | – | – | – | – | – | – | – | – | 0.032 µg/mL (≈ 0.0428 µM) | 0.063 µg/mL (≈ 0.0842 µM) | – | – | – | – | – | MIC50 (Mycoplasma genitalium [2]): 0.004 µg/mL (≈ 0.00535 µM); MIC90 (Mycoplasma genitalium [2]): 0.008 µg/mL (≈ 0.0107 µM); MIC (Mycoplasma genitalium [4]): 0.002 µg/mL (≈ 0.00267 µM); MIC (Mycoplasma genitalium [6]): 0.002 µg/mL (≈ 0.00267 µM); MIC (Mycoplasma genitalium [12]): 0.002 µg/mL (≈ 0.00267 µM); MIC (Mycoplasma genitalium [14]): 0.002 µg/mL (≈ 0.00267 µM); MIC (Mycoplasma genitalium [16]): 0.002 µg/mL (≈ 0.00267 µM); MIC (Mycoplasma genitalium [20]): 0.002 µg/mL (≈ 0.00267 µM); MIC (Mycoplasma genitalium [21]): 0.002 µg/mL (≈ 0.00267 µM)
N[C@@H]1CN(c2c(F)cc3c(=O)c(C(=O)O)cn([C@@H]4C[C@@H]4F)c3c2Cl)CC12CC2 [SITAFLOXACIN ANHYDROUS] | 0.008 µg/mL (≈ 0.0195 µM) | 0.063 µg/mL (≈ 0.154 µM) | 0.125 µg/mL (≈ 0.305 µM) | 0.008 µg/mL (≈ 0.0195 µM) | 0.063 µg/mL (≈ 0.154 µM) | 0.008 µg/mL (≈ 0.0195 µM) | 0.063 µg/mL (≈ 0.154 µM) | 0.008 µg/mL (≈ 0.0195 µM) | 0.008 µg/mL (≈ 0.0195 µM) | 0.008 µg/mL (≈ 0.0195 µM) | 0.008 µg/mL (≈ 0.0195 µM) | 0.008 µg/mL (≈ 0.0195 µM) | 0.063 µg/mL (≈ 0.154 µM) | 0.063 µg/mL (≈ 0.154 µM) | 0.125 µg/mL (≈ 0.305 µM) | 0.063 µg/mL (≈ 0.154 µM) | 0.008 µg/mL (≈ 0.0195 µM) | 0.063 µg/mL (≈ 0.154 µM) | 0.008 µg/mL (≈ 0.0195 µM) | 0.008 µg/mL (≈ 0.0195 µM) | MIC (Mycoplasma genitalium [19]): 0.008 µg/mL (≈ 0.0195 µM); MIC (Mycoplasma genitalium [20]; read-out: MIC): 0.063 µg/mL (≈ 0.154 µM); MIC (Mycoplasma genitalium [21]; read-out: MIC): 0.063 µg/mL (≈ 0.154 µM); MIC (Mycoplasma genitalium [22]): 0.008 µg/mL (≈ 0.0195 µM); MIC (Mycoplasma genitalium [23]): 0.008 µg/mL (≈ 0.0195 µM); MIC (Mycoplasma genitalium [24]): 0.008 µg/mL (≈ 0.0195 µM)
C[C@H]1c2cccc(O)c2C(=O)C2=C(O)[C@]3(O)C(=O)C(C(N)=O)=C(O)[C@@H](N(C)C)[C@@H]3[C@@H](O)[C@@H]21.O [DOXYCYCLINE] | 0.063 µg/mL | 0.125 µg/mL | 0.25 µg/mL | 0.063 µg/mL | 0.063 µg/mL | 0.063 µg/mL | 0.063 µg/mL | 0.063 µg/mL | 0.063 µg/mL | 0.063 µg/mL | 0.063 µg/mL | 0.063 µg/mL | 0.063 µg/mL | 0.25 µg/mL | 0.5 µg/mL | 0.063 µg/mL | 0.063 µg/mL | 0.063 µg/mL | 0.063 µg/mL | 0.063 µg/mL | MIC (Mycoplasma genitalium [19]): 0.063 µg/mL; MIC (Mycoplasma genitalium [20]; read-out: MIC): 0.063 µg/mL; MIC (Mycoplasma genitalium [21]; read-out: MIC): 0.063 µg/mL; MIC (Mycoplasma genitalium [22]): 0.063 µg/mL; MIC (Mycoplasma genitalium [23]): 0.063 µg/mL; MIC (Mycoplasma genitalium [24]): 0.063 µg/mL

Continued, in another order:

MIC (Mycoplasma genitalium [1]) | MIC50 (Mycoplasma genitalium [2]; read-out: MIC50) | MIC90 (Mycoplasma genitalium [2]; read-out: MIC90) | MIC (Mycoplasma genitalium [3]) | MIC (Mycoplasma genitalium [4]; read-out: MIC) | MIC (Mycoplasma genitalium [5]) | MIC (Mycoplasma genitalium [6]; read-out: MIC) | MIC (Mycoplasma genitalium [7]) | MIC (Mycoplasma genitalium [8]) | MIC (Mycoplasma genitalium [9]) | MIC (Mycoplasma genitalium [10]) | MIC (Mycoplasma genitalium [11]) | MIC (Mycoplasma genitalium [12]; read-out: MIC) | MIC50 (Mycoplasma genitalium [13]) | MIC90 (Mycoplasma genitalium [13]) | MIC (Mycoplasma genitalium [14]; read-out: MIC) | MIC (Mycoplasma genitalium [15]) | MIC (Mycoplasma genitalium [16]; read-out: MIC) | MIC (Mycoplasma genitalium [17]) | MIC (Mycoplasma genitalium [18]) | Structure (SMILES) | also measured
0.125 µg/mL | 1 µg/mL | 2 µg/mL | 0.125 µg/mL | 1 µg/mL | 0.125 µg/mL | 1 µg/mL | 0.125 µg/mL | 0.125 µg/mL | 0.125 µg/mL | 0.125 µg/mL | 0.125 µg/mL | 1 µg/mL | 1 µg/mL | 4 µg/mL | 1 µg/mL | 0.125 µg/mL | 1 µg/mL | 0.125 µg/mL | 0.125 µg/mL | C[C@H]1COc2c(N3CCN(C)CC3)c(F)cc3c(=O)c(C(=O)O)cn1c23.C[C@H]1COc2c(N3CCN(C)CC3)c(F)cc3c(=O)c(C(=O)O)cn1c23.O [LEVOFLOXACIN] | MIC (Mycoplasma genitalium [19]): 0.125 µg/mL; MIC (Mycoplasma genitalium [20]; read-out: MIC): 1 µg/mL; MIC (Mycoplasma genitalium [21]; read-out: MIC): 1 µg/mL; MIC (Mycoplasma genitalium [22]): 0.125 µg/mL; MIC (Mycoplasma genitalium [23]): 0.125 µg/mL; MIC (Mycoplasma genitalium [24]): 0.125 µg/mL
0.063 µg/mL (≈ 0.142 µM) | 0.125 µg/mL (≈ 0.281 µM) | 0.5 µg/mL (≈ 1.13 µM) | 0.063 µg/mL (≈ 0.142 µM) | 0.063 µg/mL (≈ 0.142 µM) | 0.063 µg/mL (≈ 0.142 µM) | 0.063 µg/mL (≈ 0.142 µM) | 0.063 µg/mL (≈ 0.142 µM) | 0.063 µg/mL (≈ 0.142 µM) | 0.063 µg/mL (≈ 0.142 µM) | 0.063 µg/mL (≈ 0.142 µM) | 0.063 µg/mL (≈ 0.142 µM) | 0.063 µg/mL (≈ 0.142 µM) | 0.5 µg/mL (≈ 1.13 µM) | 2 µg/mL (≈ 4.5 µM) | 0.063 µg/mL (≈ 0.142 µM) | 0.063 µg/mL (≈ 0.142 µM) | 0.063 µg/mL (≈ 0.142 µM) | 0.063 µg/mL (≈ 0.142 µM) | 0.063 µg/mL (≈ 0.142 µM) | CN(C)[C@@H]1C(O)=C(C(N)=O)C(=O)[C@@]2(O)C(O)=C3C(=O)c4c(O)cccc4[C@@](C)(O)[C@H]3C[C@@H]12 [TETRACYCLINE] | MIC (Mycoplasma genitalium [19]): 0.063 µg/mL (≈ 0.142 µM); MIC (Mycoplasma genitalium [20]; read-out: MIC): 0.063 µg/mL (≈ 0.142 µM); MIC (Mycoplasma genitalium [21]; read-out: MIC): 0.063 µg/mL (≈ 0.142 µM); MIC (Mycoplasma genitalium [22]): 0.063 µg/mL (≈ 0.142 µM); MIC (Mycoplasma genitalium [23]): 0.063 µg/mL (≈ 0.142 µM); MIC (Mycoplasma genitalium [24]): 0.063 µg/mL (≈ 0.142 µM)
